Source: PMC7561186, “Rational design of balanced dual-targeting antibiotics with limited resistance” (PLoS Biology, 2020)
Values after ≈ are worked out from the molar mass of the structure shown. Like-named read-outs stand apart in the source and are kept apart here.

Key:
[1] = system: S. aureus clinical isolates; assay: microbe, parasite or virus in culture; format: cell-based; conditions: Staphylococcus aureus, read-out: MIC
[2] = in vitro; conditions: human
Experimental: Cytotoxicity of compounds on HepG2 and MCF-7 mammalian cell lines was determined by using a standard LDH assay. Briefly, HepG2 and MCF-7 cells were cultured in Eagle’s MEM medium (from Gibco) supplemented with 2 mM L-glutamine (Sigma), 100 U/mL penicillin (Sigma), and 100 μg/mL streptomycin (Sigma), and 10% FBS (Gibco) at 37 °C and under 5% CO2. Next, LDH assays were performed according to manufacturer instructions (Thermo Fisher Scientific, Massachusetts, USA). By using a CyQUANT LDH Cytotoxicity Assay Kit. Firstly, the cells were seeded in 96-well microtiter plates at 10^5 cells/mL (100 μL/well) and allowed to attach overnight. […] Lysis buffer (10 μL, Thermo Fisher Scientific) was then added to the maximal LDH activity control wells and incubated additional 45 minutes. The cell culture supernatant (50 μL) was then transferred to a new 96-well plate and mixed with 50 μL of the reaction mixture. After 30 minutes on room temperature, reactions were stopped with 50 μL of the Stop solution. Absorbance (490 nm and 680 nm) was measured with the automatic microplate reader Synergy 4 Hybrid Microplate Reader (BioTek, VT, USA). All experiments were performed in triplicates and repeated 3 times. Statistical significance (P < 0.05) was calculated with 2-tailed Welch’s t-test between treated groups and DMSO. The percentage of cytotoxicity was determined according to the following equation: %Cytotoxicity=(CompoundtreatedLDHactivity-SpontaneousLDHactivity/MaximumLDHactivity-SpontaneousLDHactivity)*100

[3] = system: S. aureus VISA ATCC 700699 GyrB / ParE mutants; assay: MIC of spontaneous resistant mutants (single-step and second-step); format: cell-based; conditions: Staphylococcus aureus
Experimental: (§1) MICs were determined using a standard serial broth microdilution technique according to the CLSI guidelines. Briefly, bacterial strains were inoculated onto MHBII agar plates and were grown overnight at 37 °C. Next, 3 individual colonies from each strain were inoculated into 1 mL MHBII medium and propagated at 37 °C, 250 rpm overnight. In the cases of Enterococcus and Streptococcus sp., cells were plated to BHI agar plates, and BHI broth was used to determine MICs. […] Following dilutions, each well was seeded with 5×10^4 bacterial cells. All measurements were performed in 3 parallel replicates and to avoid possible edge effects in microwell plates, side rows (A and H) were filled with sterile medium. Following inoculations, plates were covered with lids and wrapped in polyethylene plastic bags to minimize evaporation but allow for O2 transfer. Plates were incubated at 37 °C under continuous shaking at 150 rpm for 18 hours. After incubation, OD600 of each well was measured using a BioTek Synergy 2 microplate reader.

[4] = system: multidrug-resistant Staphylococcus, Enterococcus, and Streptococcus isolates; assay: MIC against multidrug-resistant gram-positive isolates (summary); format: cell-based; conditions: read-out: MIC values against all studied multidrug-resistant Staphylococcus, Enterococcus, and Streptococcus isolates
Experimental: as §1

In the case of `Cc1[nH]c(C(=O)Nc2nc3ccc(C(=O)O)cc3s2)c(Cl)c1Cl` [ULD1], the MIC ([1]; MRSA, S. aureus IHMA 1742231, MRSA / VSSA) is reported as 0.5 µg/mL (≈ 1.35 µM), the MIC ([1]; MRSA, S. aureus IHMA 1766357, MRSA / VSSA) is reported as 0.25 µg/mL (≈ 0.675 µM) and the MIC ([1]; MSSA / NRS 12 / VISA, S. aureus IHMA 1308244, NRS12, MSSA / VISA) is reported as 1 µg/mL (≈ 2.7 µM). For the same molecule, the MIC ([1]; MSSA / NRS 13 / VISA, S. aureus IHMA 1308245, NRS13, MSSA / VISA) was 1 µg/mL (≈ 2.7 µM), the MIC ([1]; MSSA / NRS 14 / VISA, S. aureus IHMA 1308246, NRS14, MSSA / VISA) was 1 µg/mL (≈ 2.7 µM) and the MIC ([1]; MSSA / NRS 17 / VISA, S. aureus IHMA 1308247, NRS17, MSSA / VISA) was 1 µg/mL (≈ 2.7 µM). It also gave an MIC ([1]; MSSA / NRS 28 / VISA, S. aureus IHMA 1308249, NRS28, MSSA / VISA) of 1 µg/mL (≈ 2.7 µM), an MIC ([1]; MSSA / NRS 52, S. aureus IHMA 1308252, NRS52, MSSA / VSSA* (*Expected VAN intermediate, confirmed VAN susceptible twice), test date 2018-11-07) of 0.12 µg/mL (≈ 0.324 µM) and an MIC ([1]; MSSA / USA100 / VRSA, S. aureus IHMA 672236, VRS6, MSSA / VRSA, USA100) of 0.25 µg/mL (≈ 0.675 µM). It also gave an MIC ([1]; MSSA, S. aureus IHMA 1563826, MSSA / VSSA) of 0.5 µg/mL (≈ 1.35 µM), an MIC ([1]; MSSA, S. aureus IHMA 1565492, MSSA / VSSA) of 0.25 µg/mL (≈ 0.675 µM) and an MIC ([1]; MSSA, S. aureus IHMA 1569499, MSSA / VSSA) of 1 µg/mL (≈ 2.7 µM). The MIC ([1]; MSSA, S. aureus IHMA 1569754, MSSA / VSSA) was 0.25 µg/mL (≈ 0.675 µM), the MIC ([1]; MSSA, S. aureus IHMA 1574202, MSSA / VSSA) was 0.5 µg/mL (≈ 1.35 µM) and the MIC ([1]; MSSA, S. aureus IHMA 1575652, MSSA / VSSA) was 0.5 µg/mL (≈ 1.35 µM). For the same molecule, the MIC ([1]; MSSA, S. aureus IHMA 1575779, MSSA / VSSA) was 1 µg/mL (≈ 2.7 µM), the MIC ([1]; MSSA, S. aureus IHMA 1576329, MSSA / VSSA) was 1 µg/mL (≈ 2.7 µM) and the MIC ([1]; MSSA, S. aureus IHMA 1577800, MSSA / VSSA) was 0.5 µg/mL (≈ 1.35 µM). The MIC ([1]; MSSA, S. aureus IHMA 1578560, MSSA / VSSA) was 1 µg/mL (≈ 2.7 µM), the MIC ([1]; MSSA, S. aureus IHMA 1580233, MSSA / VSSA) was 0.25 µg/mL (≈ 0.675 µM) and the MIC ([1]; MSSA, S. aureus IHMA 1580925, MSSA / VSSA) was 0.25 µg/mL (≈ 0.675 µM). For the same molecule, the MIC ([1]; MSSA, S. aureus IHMA 1580955, MSSA / VSSA) was 1 µg/mL (≈ 2.7 µM), the MIC ([1]; MSSA, S. aureus IHMA 1582586, MSSA / VSSA) was 1 µg/mL (≈ 2.7 µM) and the MIC ([1]; MSSA, S. aureus IHMA 1582691, MSSA / VSSA) was 0.25 µg/mL (≈ 0.675 µM). It also gave an MIC ([1]; MSSA, S. aureus IHMA 1584230, MSSA / VSSA) of 1 µg/mL (≈ 2.7 µM), an MIC ([1]; MSSA, S. aureus IHMA 1587279, MSSA / VSSA) of 0.5 µg/mL (≈ 1.35 µM) and an MIC ([1]; MSSA, S. aureus IHMA 1591459, MSSA / VSSA) of 0.5 µg/mL (≈ 1.35 µM). It also gave an MIC ([1]; MSSA, S. aureus IHMA 1592749, MSSA / VSSA) of 1 µg/mL (≈ 2.7 µM), an MIC ([1]; MSSA, S. aureus IHMA 1592751, MSSA / VSSA) of 0.5 µg/mL (≈ 1.35 µM) and an MIC ([1]; MSSA, S. aureus IHMA 1594297, MSSA / VSSA) of 1 µg/mL (≈ 2.7 µM). It also gave an MIC ([1]; MSSA, S. aureus IHMA 1597120, MSSA / VSSA) of 1 µg/mL (≈ 2.7 µM), an MIC ([1]; MSSA, S. aureus IHMA 1597125, MSSA / VSSA) of 1 µg/mL (≈ 2.7 µM) and an MIC ([1]; MSSA, S. aureus IHMA 1599157, MSSA / VSSA) of 1 µg/mL (≈ 2.7 µM). It also gave an MIC ([1]; MSSA, S. aureus IHMA 1599506, MSSA / VSSA) of 0.12 µg/mL (≈ 0.324 µM), an MIC ([1]; MSSA, S. aureus IHMA 1602078, MSSA / VSSA) of 0.5 µg/mL (≈ 1.35 µM) and an MIC ([1]; MSSA, S. aureus IHMA 1604586, MSSA / VSSA) of 0.5 µg/mL (≈ 1.35 µM). The MIC ([1]; MSSA, S. aureus IHMA 1604609, MSSA / VSSA) was 0.5 µg/mL (≈ 1.35 µM), the MIC ([1]; MSSA, S. aureus IHMA 1609919, MSSA / VSSA) was 0.5 µg/mL (≈ 1.35 µM) and the MIC ([1]; MSSA, S. aureus IHMA 1622864, MSSA / VSSA) was 0.5 µg/mL (≈ 1.35 µM). For the same molecule, the MIC ([1]; MSSA, S. aureus IHMA 1626392, MSSA / VSSA) was 1 µg/mL (≈ 2.7 µM), the MIC ([1]; MSSA, S. aureus IHMA 1713793, MSSA / VSSA) was 1 µg/mL (≈ 2.7 µM) and the IC50 [2] was greater than 100 µM. It also gave an MIC ([3]; VISA GyrB I175T) of 0.198 µg/mL, an MIC ([3]; VISA GyrB R144G) of 0.132 µg/mL and an MIC ([3]; VISA GyrB R144I) of 0.198 µg/mL. It also gave an MIC ([3]; VISA wt, read-out: MIC) of 0.04 µg/mL, an MIC ([3]; second-step mutant, selection ULD1 at 16× MIC, GyrB I175T, ParE A120D) of 4 µg/mL and an MIC ([3]; second-step mutant, selection ULD1 at 16× MIC, GyrB I175T, ParE F95Y) of 4 µg/mL. It also gave an MIC ([3]; second-step mutant, selection ULD1 at 16× MIC, GyrB I175T, ParE R136G) of 4 µg/mL, an MIC ([3]; second-step mutant, selection ULD1 at 16× MIC, GyrB I175T, ParE T166A) of 2 µg/mL and an MIC ([3]; second-step mutant, selection ULD1 at 16× MIC, GyrB I175T, ParE T166I) of 2 µg/mL. It also gave an MIC ([3]; second-step mutant, selection ULD1 at 16× MIC, GyrB R144I, ParE A120D) of 2 µg/mL, an MIC ([3]; second-step mutant, selection ULD1 at 16× MIC, GyrB R144I, ParE F95Y) of 2 µg/mL and an MIC ([3]; second-step mutant, selection ULD1 at 16× MIC, GyrB R144I, ParE R136G) of 2 µg/mL. The MIC ([3]; second-step mutant, selection ULD2 at 8× MIC, GyrB I175T, ParE A120D) was 4 µg/mL, the MIC ([3]; second-step mutant, selection ULD2 at 12× MIC, GyrB R144I, ParE A120D) was 2 µg/mL and the MIC ([3]; second-step mutant, selection ULD2 at 12× MIC, GyrB R144I, ParE F95Y) was 2 µg/mL. The MIC ([3]; second-step mutant, selection ULD2 at 12× MIC, GyrB R144I, ParE R136G) was 4 µg/mL and the MIC [4] was less than 2 µg/mL.
